From paper PMC6175828, “C16-ceramide is a natural regulatory ligand of p53 in cellular stress response” (Nature Communications, 2018)
pKd: −log10 of the molar value. Values belong to the molecule of their own block, whether it stands above or below them.

Columns and labels:
p53 [1] = molecular target: T1, p53 (Homo sapiens, UniProt P04637); assay: UV photo-crosslinking, MALDI-TOF MS and LC-MS/MS site mapping; thermal shift (Tm […] to […] °C); assay type: binding; set-up: gene TP53; DBD, residues 100–300
p53 [2] = molecular target: T1, p53; assay: PVDF membrane-binding assay with purified p53; p53 immunoprecipitation with LC-MS/MS of bound ceramide; set-up: gene TP53; purified recombinant p53; endogenous p53 pulled down from A549 cells
p53 [3] = molecular target: T2, p53 (Homo sapiens, UniProt P04637, S241A); assay: binding test of p53 mutant (Supplementary Figure […]), qualitative
T2 construct: gene TP53; full-length

p53 [4] = molecular target: T3, p53 (Homo sapiens, UniProt P04637, R175H); assay: binding test of p53 mutant (Supplementary Figure 4a), qualitative
T3 construct: gene TP53

p53 [5] = molecular target: T4, p53 (Homo sapiens, UniProt P04637, S240E); assay: binding test of p53 mutant (Supplementary Figure […]), qualitative
T4 construct: gene TP53; full-length

p53 [6] = molecular target: T1, p53; assay: intrinsic tyrosine fluorescence quenching titration of purified p53 DBD; PVDF membrane-binding assay; set-up: gene TP53

SMILES: C#CCCCC1(CCCCCCCCC(=O)N[C@@H](CO)[C@H](O)/C=C/CCCCCCCCCCCCC)N=N1 [PAC, N-(9-(3-pent-4-ynyl-3-H-diazirin-3-yl)-nonanoyl)-D-erythro-sphingosine]
UV photo-crosslinking, MALDI-TOF MS and LC-MS/MS site mapping; thermal shift (Tm) (p53 [1]): LC-MS/MS data revealed two ceramide-modified residues, Ser240 and Ser241 (Fig. 3b), in the PAC-modified sample only

SMILES: CCCCCCCCCCCCC/C=C/[C@@H](O)[C@H](CO)NC(=O)CCCCCCCCCCCCCCC [C16-ceramide, N-(hexadecanoyl)-sphing-4-enine]
PVDF membrane-binding assay with purified p53; p53 immunoprecipitation with LC-M (p53 [2]): these experiments demonstrated the strong preference of p53 for C16-ceramide

pKd (p53 [6]): ~7.22
SMILES: CCCCCCCCCCCCC/C=C/[C@@H](O)[C@H](CO)NC(=O)CCCCCCCCCCCCCCC[n+]1ccccc1 [PC16, D-erythro-2-N-[16′-(1′′-pyridinium)-hexadecanoyl]-sphingosine bromide]
binding test of p53 mutant (Supplementary Figure 4), qualitative (p53 [3]): substitutions with aa having shorter side chains (S241A or S240E) did not affect the binding
binding test of p53 mutant (Supplementary Figure 4a), qualitative (p53 [4]): R175H, did not affect the binding of PC16 to p53 (Supplementary Figure 4a)
binding test of p53 mutant (Supplementary Figure 4), qualitative (p53 [5]): substitutions with aa having shorter side chains (S241A or S240E) did not affect the binding
